Experimental data as given in ChEMBL document CHEMBL1201861, “Genomics of Drug Sensitity in Cancer screening data, Wellcome Trust Sanger Institute”.
pIC50: −log10 of the molar value.

What was measured:
A253 cell line = assay: cells; type: functional, cell-based, Homo sapiens; conditions: Homo sapiens, A253;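 further: growth inhibition of A253 cells, read out with a cell viability assay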
Description: SANGER: Inhibition of human A253 cell growth in a cell viability assay.

HMV-2 cell line = assay: cells; type: functional, cell-based, Homo sapiens; conditions: Homo sapiens, HMV-2;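 further: growth inhibition of HMV-II cells, read out with a cell viability assay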
Description: SANGER: Inhibition of human HMV-II cell growth in a cell viability assay.

LCLC-103H cell line = assay: cells; type: functional, cell-based, Homo sapiens; conditions: Homo sapiens, LCLC-103H
Description: SANGER: Inhibition of human LCLC-103H cell growth in a cell viability assay.

KYSE-150 cell line = assay: cells; type: functional, cell-based, Homo sapiens; conditions: Homo sapiens, KYSE-150;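 further: growth inhibition of human KYSE-150 cells, read out with a cell viability assay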
Description: SANGER: Inhibition of human KYSE-150 cell growth in a cell viability assay.

Caov-3 cell line = assay: cells; type: functional, cell-based; conditions: Homo sapiens;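 further: cell growth inhibition read out by a viability assay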
Description: SANGER: Inhibition of human Caov-3 cell growth in a cell viability assay.

KYSE-520 cell line = assay: cells; type: functional, cell-based, Homo sapiens; conditions: Homo sapiens, KYSE-520;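 further: growth inhibition of human KYSE-520 cells, read out with a viability assay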
Description: SANGER: Inhibition of human KYSE-520 cell growth in a cell viability assay.

KYSE-70 cell line = assay: cells; type: functional, cell-based, Homo sapiens; conditions: Homo sapiens, KYSE-70;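 further: cell viability assay read-out, with IC50 expressing suppression of KYSE-70 cell growth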
Description: SANGER: Inhibition of human KYSE-70 cell growth in a cell viability assay.

BC1 cell line = assay: SANGER: Inhibition of human BC-1 cell growth in a cell viability assay.; type: functional, cell-based
LXF-289 cell line = assay: cells; type: functional, cell-based, Homo sapiens; conditions: Homo sapiens, LXF-289
Description: SANGER: Inhibition of human LXF-289 cell growth in a cell viability assay.

KU812 cell line = assay: cells; type: functional, cell-based; conditions: Homo sapiens;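 further: growth inhibition of KU812 cells, read out with a cell viability assay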
Description: SANGER: Inhibition of human KU812 cell growth in a cell viability assay.

C[C@@]1(C(=O)Nc2ccc(F)nc2)CCCN1c1nc(Nc2cc(C3CC3)n[nH]2)c2cccn2n1 [BMS-754807]
pIC50 (A253 cell line): < 5.59
pIC50 (HMV-2 cell line): 6.74
pIC50 (LCLC-103H cell line): 6.10
pIC50 (KYSE-150 cell line): 5.65
pIC50 (Caov-3 cell line): < 5.59
pIC50 (KYSE-520 cell line): < 5.59
pIC50 (KYSE-70 cell line): < 5.59
pIC50 (BC1 cell line): 6.23
pIC50 (LXF-289 cell line): < 5.59
pIC50 (KU812 cell line): < 5.59
